In ChEMBL document CHEMBL1145400, “Synthesis and biological evaluation of 4(5)-(6-alkylpyridin-2-yl)imidazoles as transforming growth factor-beta type 1 receptor kinase inhibitors” (J Med Chem, 2007) one finds IC50 data, which are given here for 18 molecules.

By pIC50 is commonly meant the IC50 on a negative log10 scale, so that one unit is a factor of ten.

The structures appear in SMILES notation. pIC50: −log10 of the molar value.

Chain of Mitogen-activated protein kinase 14 (Q16539 whole entry): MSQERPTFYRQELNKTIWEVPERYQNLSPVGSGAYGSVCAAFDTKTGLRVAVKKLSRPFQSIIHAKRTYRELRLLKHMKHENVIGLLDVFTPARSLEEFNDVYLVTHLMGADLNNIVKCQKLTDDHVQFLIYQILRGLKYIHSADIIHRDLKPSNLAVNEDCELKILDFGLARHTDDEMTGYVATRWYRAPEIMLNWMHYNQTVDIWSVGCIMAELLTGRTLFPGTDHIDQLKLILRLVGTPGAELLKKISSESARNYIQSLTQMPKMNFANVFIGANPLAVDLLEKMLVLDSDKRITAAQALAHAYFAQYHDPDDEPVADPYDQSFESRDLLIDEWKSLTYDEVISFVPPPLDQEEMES

For the first test, the target named is T1, TGF-beta receptor type-1 (Homo sapiens, UniProt P36897).
T1 sequence (P36897 whole entry): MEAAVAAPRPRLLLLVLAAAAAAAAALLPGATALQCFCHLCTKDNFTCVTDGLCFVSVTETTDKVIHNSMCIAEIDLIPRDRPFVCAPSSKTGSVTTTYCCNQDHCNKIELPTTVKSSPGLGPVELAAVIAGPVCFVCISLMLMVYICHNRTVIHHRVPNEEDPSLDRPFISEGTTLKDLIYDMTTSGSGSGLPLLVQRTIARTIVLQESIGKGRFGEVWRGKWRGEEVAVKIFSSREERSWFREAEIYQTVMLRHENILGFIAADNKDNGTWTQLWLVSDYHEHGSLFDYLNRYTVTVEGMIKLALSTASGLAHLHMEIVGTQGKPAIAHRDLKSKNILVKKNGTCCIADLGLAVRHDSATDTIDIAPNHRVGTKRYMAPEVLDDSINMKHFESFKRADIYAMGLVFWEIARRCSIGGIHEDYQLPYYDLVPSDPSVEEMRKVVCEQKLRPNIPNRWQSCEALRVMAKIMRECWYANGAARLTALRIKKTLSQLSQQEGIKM
The experiment in a line: Inhibition of human recombinant ALK5 phosphorylation expressed in Sf9 cells.
On to `CCc1cccc(-c2nc(CNc3ccc(C(N)=O)cc3)[nH]c2-c2ccc3nccnc3c2)n1`, for which the pIC50 is 7.04.

As to `CCc1cccc(-c2[nH]c(CNc3ccc(C#N)cc3)nc2-c2ccc3c(c2)OCO3)n1`, the pIC50 is 6.44.

`Cc1cccc(-c2[nH]c(CNc3cccc(C#N)c3)nc2-c2ccc3nccnc3c2)n1`: the pIC50 was 7.92.

With `CCc1cccc(-c2[nH]c(CNc3cccc(C#N)c3)nc2-c2ccc3nccnc3c2)n1`, the pIC50 is 6.92.

Consider `Cc1cccc(-c2[nH]c(CNc3cccc(C(N)=O)c3)nc2-c2ccc3c(c2)OCO3)n1`, for which the pIC50 was 7.68.

In the case of `CCc1cccc(-c2[nH]c(CNc3cccc(C(N)=O)c3)nc2-c2ccc3nccnc3c2)n1`, the pIC50 is 7.82.

Consider `Cc1cccc(-c2[nH]c(CNc3ccc(C(N)=O)cc3)nc2-c2ccc3c(c2)OCO3)n1`, for which the pIC50 is 6.58.

Take `Cc1cccc(-c2nc(CNc3cccc(C(N)=O)c3)[nH]c2-c2ccc3nccnc3c2)n1`: the pIC50 is 8.00.

Turning to `Cc1cccc(-c2[nH]c(NCc3cccc(C#N)c3)nc2-c2ccc3c(c2)OCO3)n1`, the pIC50 was 7.62.

With `Cc1cccc(-c2nc(CNc3ccc(C(N)=O)cc3)[nH]c2-c2ccc3nccnc3c2)n1`, the pIC50 was 7.12.

On to `CCc1cccc(-c2[nH]c(CNc3ccc(C#N)cc3)nc2-c2ccc3nccnc3c2)n1`, for which the negative-log IC50 (pIC50) is 7.33.

`Cc1cccc(-c2[nH]c(NCc3ccc(C#N)cc3)nc2-c2ccc3c(c2)OCO3)n1`: the pIC50 is 6.82.

In the case of `Cc1cccc(-c2[nH]c(CNc3cccc(C#N)c3)nc2-c2ccc3c(c2)OCO3)n1`, the pIC50 was 7.34.

For the molecule `CCc1cccc(-c2[nH]c(CNc3ccc(C(N)=O)cc3)nc2-c2ccc3c(c2)OCO3)n1`, the pIC50 was 6.41.

`Cc1cccc(-c2[nH]c(CNc3ccc(C#N)cc3)nc2-c2ccc3nccnc3c2)n1`: the pIC50 is 7.38.

For the molecule `Cc1cccc(-c2[nH]c(CNc3ccc(C#N)cc3)nc2-c2ccc3c(c2)OCO3)n1`, the pIC50 is 6.76.

In the case of `CCc1cccc(-c2nc(CNc3cccc(C#N)c3)[nH]c2-c2ccc3c(c2)OCO3)n1`, the pIC50 is 7.14.

For `CCc1cccc(-c2nc(CNc3cccc(C(N)=O)c3)[nH]c2-c2ccc3c(c2)OCO3)n1`, the pIC50 is 7.34.

Another test deals with T2, Serine/threonine-protein kinase D1 (Homo sapiens, UniProt Q15139).
T2 sequence (Q15139 whole entry): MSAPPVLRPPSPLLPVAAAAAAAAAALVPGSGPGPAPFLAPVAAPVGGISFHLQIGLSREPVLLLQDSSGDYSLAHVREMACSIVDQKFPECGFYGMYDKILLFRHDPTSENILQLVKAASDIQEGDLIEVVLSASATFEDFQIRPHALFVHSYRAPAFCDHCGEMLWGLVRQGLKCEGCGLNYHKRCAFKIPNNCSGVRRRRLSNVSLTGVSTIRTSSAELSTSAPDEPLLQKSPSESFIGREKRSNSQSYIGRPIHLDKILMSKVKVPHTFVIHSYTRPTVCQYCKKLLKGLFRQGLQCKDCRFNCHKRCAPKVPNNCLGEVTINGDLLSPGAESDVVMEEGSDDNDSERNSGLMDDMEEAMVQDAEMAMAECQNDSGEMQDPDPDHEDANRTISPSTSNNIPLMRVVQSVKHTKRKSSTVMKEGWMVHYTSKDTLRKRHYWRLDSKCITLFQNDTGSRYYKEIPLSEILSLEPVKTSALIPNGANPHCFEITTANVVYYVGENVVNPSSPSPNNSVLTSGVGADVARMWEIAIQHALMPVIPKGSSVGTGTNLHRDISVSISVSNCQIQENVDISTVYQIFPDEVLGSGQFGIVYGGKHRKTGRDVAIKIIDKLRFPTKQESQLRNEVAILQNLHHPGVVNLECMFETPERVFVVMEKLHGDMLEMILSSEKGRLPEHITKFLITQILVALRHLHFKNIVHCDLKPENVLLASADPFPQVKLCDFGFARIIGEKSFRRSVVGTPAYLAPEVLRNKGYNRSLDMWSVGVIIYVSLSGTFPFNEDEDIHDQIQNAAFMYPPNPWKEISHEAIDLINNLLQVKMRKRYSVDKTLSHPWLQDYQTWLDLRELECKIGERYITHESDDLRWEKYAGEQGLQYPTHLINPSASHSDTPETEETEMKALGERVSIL
The experiment in a line: Inhibition of PKCmu.
`Cc1cccc(-c2[nH]c(CNc3cccc(C#N)c3)nc2-c2ccc3nccnc3c2)n1` had a pIC50 of 6.00.

The next test has as its target Mitogen-activated protein kinase 14 (Homo sapiens, UniProt Q16539).
For `Cc1cccc(-c2[nH]c(CNc3cccc(C#N)c3)nc2-c2ccc3nccnc3c2)n1`, the pIC50 was 5.99.
